A value given as a limit tells only on which side of the number the result lay.

For the test, the target named is T1, recombinant Plk1 protein (Homo sapiens, UniProt P53350).
T1 construct: histidine tag (N); made in house; host or cells: SF9 insect cells
T1 sequence (P53350 whole entry): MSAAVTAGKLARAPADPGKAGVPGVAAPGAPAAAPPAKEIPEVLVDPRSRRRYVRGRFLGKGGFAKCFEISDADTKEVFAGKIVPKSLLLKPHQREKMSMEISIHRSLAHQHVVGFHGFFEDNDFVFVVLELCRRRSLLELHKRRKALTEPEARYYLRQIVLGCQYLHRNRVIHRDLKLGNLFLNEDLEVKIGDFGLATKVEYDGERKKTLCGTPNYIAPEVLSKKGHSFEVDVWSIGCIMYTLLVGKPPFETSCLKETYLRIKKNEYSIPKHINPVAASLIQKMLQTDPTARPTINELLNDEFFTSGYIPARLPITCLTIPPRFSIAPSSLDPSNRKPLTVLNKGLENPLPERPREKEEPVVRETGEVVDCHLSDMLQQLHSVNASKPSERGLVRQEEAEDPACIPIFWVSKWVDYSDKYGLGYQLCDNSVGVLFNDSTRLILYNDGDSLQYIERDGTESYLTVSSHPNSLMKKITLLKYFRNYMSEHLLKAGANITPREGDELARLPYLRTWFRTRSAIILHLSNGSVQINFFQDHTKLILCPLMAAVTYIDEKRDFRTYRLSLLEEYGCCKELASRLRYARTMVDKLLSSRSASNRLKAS
Description: Plk1 kinase activity inhibition assay (33P-ATP, alpha casein substrate, flash plates). The format is biochemical. The following applies: enzymatic assay, 100 nM Li-ATP, 80 minutes at 30° C. The procedure:
The inhibition of Plk1 kinase activity can be measured using recombinant Plk1 protein expressed as an N-terminally histidine-tagged protein in SF9 insect cells and alpha casein as substrate. The Plk1 assay is run in 96 well plates by incubating 50 to 100 ng per well recombinant Plk1, 500 ng per well alpha casein (Sigma, # C-6780) as substrate, 10 μl of compound of invention (test compounds were dissolved as 20 mM solutions in dimethylsulfoxide (DMSO) and subsequently diluted), and 100 nM Li-ATP (including ^33P-ATP) in 100 μl of reaction buffer ([…] HEPES, pH 7.5; 3 mM MgCl2; 3 mM MnCl2; 3 μM Na-Orthovanadat; 1 mM DTT; 1 μg/ml PEG 8000) for 80 minutes at 30° C. The reactions are terminated by adding 100 μl stopping buffer (2% H3PO4 for 5 minutes) and are washed 3 times with washing solution (0.9% NaCl). Determining ^33P incorporated into the protein substrate alpha casein, the detection is based on the adhesion of the phosphorylated protein to the surface of scintillator-coated flash plates (Perkin Elmer, USA; #SMP-200). Phosphorylation of alpha casein is measured by counting the radioactivity bound to the plate for 60 sec. using a plate reader (Perkin Elmer, USA; Wallac Microbeta). By this method, the IC50 value of the Plk1 inhibition is determined as described above.
As to `COCCN1CCN(Cc2cc3ncn(-c4cc(OC(C)c5ccccc5F)c(C(N)=O)s4)c3cn2)CC1` (stereo not drawn) [Example 157, 3-[-1-(2-fluorophenyl)ethoxy]-5-(6-{[4-(2-methoxyethyl)piperazin-1-yl]methyl}-3H-imidazo[4,5-c]pyridin-3-yl)thiophene-2-carboxamide], the IC50 lay in the range of 100 to 1000 nM.
The figure for `C[C@@H](Oc1cc(-n2cnc3cnc(CO)cc32)sc1C(N)=O)c1ccccc1Br` [Example 52, 3-[(1R)-1-(2-bromophenyl)ethoxy]-5-[6-(hydroxymethyl)-1H-imidazo[4,5-c]pyridin-1-yl]thiophene-2-carboxamide] is below 10 nM.
The figure for `CCc1ccccc1COc1cc(-n2cnc3cnc(CN4CCN(C)CC4)cc32)sc1C(N)=O` [Example 153, 3-[(2-ethylbenzyl)oxy]-5-{6-[(4-methylpiperazin-1-yl)methyl]-1H-imidazo[4,5-c]pyridin-1-yl}thiophene-2-carboxamide] is below 10 nM; for `CC(Oc1cc(-n2cnc3cnc(CO)cc32)sc1C(N)=O)c1ccccc1OC(F)F` (stereo not drawn) [Example 53] it is below 10 nM.
The figure for `CC(Oc1cc(-n2cnc3cnc(CO)cc32)sc1C(N)=O)c1ccccc1F` (stereo not drawn) [Example 57] is below 10 nM.
Take `C[C@@H](Oc1cc(-n2cnc3ccncc32)sc1C(N)=O)c1ccccc1Cl` [Example 32, 3-[(1R)-1-(2-chlorophenyl)ethoxy]-5-(3H-imidazo[4,5-c]pyridin-3-yl)thiophene-2-carboxamide]: the IC50 is below 10 nM.
Turning to `C[C@@H](Oc1cc(-n2cnc3cnc(CN4CCC(N(C)C)CC4)cc32)sc1C(N)=O)c1ccccc1C(F)(F)F` [Example 65, 5-(6-{[4-(dimethylamino)piperidin-1-yl]methyl}-1H-imidazo[4,5-c]pyridin-1-yl)-3-{(1R)-1-[2-(trifluoromethyl)phenyl]ethoxy}thiophene-2-carboxamide], the IC50 was below 10 nM.
In the case of `NC(=O)c1sc(-n2cnc3ncccc32)cc1OCc1ccccc1C(F)(F)F` [Example 20, 5-(1H-Imidazo[4,5-b]pyridin-1-yl)-3-{[2-(trifluoromethyl)benzyl]oxy}thio-phene-2-carboxamide], the IC50 lay within 100 to 1000 nM.
Take `CC1CN(Cc2cc3c(cn2)ncn3-c2cc(O[C@H](C)c3ccccc3C(F)(F)F)c(C(N)=O)s2)C(C)CN1` (stereo partly drawn) [Example 83, 5-{6-[(2,5-dimethylpiperazin-1-yl)methyl]-1H-imidazo[4,5-c]pyridin-1-yl}-3-{(1R)-1-[2-(trifluoromethyl)phenyl]ethoxy}thiophene-2-carboxamide]: the IC50 lay within 10 to 100 nM.
With `CC(Oc1cc(-n2cnc3cnc(CN4CCN(C)CC4)cc32)sc1C(N)=O)c1ccc(F)cc1C(F)(F)F` (stereo not drawn) [Example 97, 3-{1-[4-fluoro-2-(trifluoromethyl)phenyl]ethoxy}-5-{6-[(4-methylpiperazin-1-yl)methyl]-1H-imidazo[4,5-c]pyridin-1-yl}thiophene-2-carboxamide], the IC50 is below 10 nM.
As to `C[C@@H](Oc1cc(-n2cnc3cnc(CN4CCN(Cc5ccccc5)CC4)cc32)sc1C(N)=O)c1ccccc1C(F)(F)F` [Example 79, 5-{6-[(4-benzylpiperazin-1-yl)methyl]-1H-imidazo[4,5-c]pyridin-1-yl}-3-{(1R)-1-[2-(trifluoromethyl)phenyl]ethoxy}thiophene-2-carboxamide], the IC50 fell in the range of 10 to 100 nM.
For `CCN(CC)Cc1cc2c(cn1)ncn2-c1cc(OCc2ccccc2C(F)(F)F)c(C(N)=O)s1` [Example 6, 5-{6-[(Diethylamino)methyl]-1H-imidazo[4,5-c]pyridin-1-yl}-3-{[2-(trifluoromethyl)benzyl]oxy}thiophene-2-carboxamide], the IC50 was 100 to 1000 nM.
Regarding `CCOc1ccc(OCC)c(COc2cc(-n3cnc4cnc(CO)cc43)sc2C(N)=O)c1` [Example 109, 3-[(2,5-diethoxybenzyl)oxy]-5-[6-(hydroxymethyl)-1H-imidazo[4,5-c]pyridin-1-yl]thiophene-2-carboxamide], the IC50 was in the range of 1000 to 10000 nM.
Next, `CCC(Oc1cc(-n2cnc3cnc(CN4CCCN(C)CC4)cc32)sc1C(N)=O)c1ccccc1Cl` (stereo not drawn) [Example 141, 3-{[1-(2-chlorophenyl)propyl]oxy}-5-{6-[(4-methyl-1,4-diazepan-1-yl)methyl]-1H-imidazo[4,5-c]pyridin-1-yl}thiophene-2-carboxamide]: 10 to 100 nM; `CCc1ccccc1COc1cc(-n2cnc3cnc(CN4CCN(CC)CC4)cc32)sc1C(N)=O` [Example 154, 3-[(2-ethylbenzyl)oxy]-5-{6-[(4-ethylpiperazin-1-yl)methyl]-1H-imidazo[4,5-c]pyridin-1-yl}thiophene-2-carboxamide]: 10 to 100 nM.
Take `C[C@@H](Oc1cc(-n2cnc3cnc(CN4CCN(CCN(C)C)CC4)cc32)sc1C(N)=O)c1ccccc1C(F)(F)F` [Example 70, 5-[6-({4-[2-(dimethylamino)ethyl]piperazin-1-yl}methyl)-1H-imidazo[4,5-c]pyridin-1-yl]-3-{(1R)-1-[2-(trifluoromethyl)phenyl]ethoxy}thiophene-2-carboxamide]: the IC50 was 10 to 100 nM.
Take `CCC(Oc1cc(-n2cnc3cnc(CN4CCN(CCOC)CC4)cc32)sc1C(N)=O)c1ccccc1Cl` (stereo not drawn) [Example 139, 3-{[1-(2-chlorophenyl)propyl]oxy}-5-(6-{[4-(2-methoxyethyl)piperazin-1-yl]methyl}-1H-imidazo[4,5-c]pyridin-1-yl)thiophene-2-carboxamide]: the IC50 lay within 10 to 100 nM.
On to `CCC(Oc1cc(-n2cnc3cnc(CN4CCN(CC)CC4)cc32)sc1C(N)=O)c1ccccc1Cl` (stereo not drawn) [Example 142], for which the IC50 is below 10 nM.
`C[C@@H](Oc1cc(-n2cnc3cnc(CN4CCN(CCC#N)CC4)cc32)sc1C(N)=O)c1ccccc1C(F)(F)F` [Example 82, 5-(6-{[4-(2-cyanoethyl)piperazin-1-yl]methyl}-1H-imidazo[4,5-c]pyridin-1-yl)-3-{(1R)-1-[2-(trifluoromethyl)phenyl]ethoxy}thiophene-2-carboxamide]: the IC50 is 10 to 100 nM.
The figure for `CC(Oc1cc(-n2cnc3cnccc32)sc1C(N)=O)c1ccccc1Cl` (stereo not drawn) [Example 15, 3-[1-(2-Chlorophenyl)ethoxy]-5-(1H-imidazo[4,5-c]pyridin-1-yl)thio-phene-2-carboxamide] is 10 to 100 nM.
In the case of `Cc1ccccc1C(C)Oc1cc(-n2cnc3cnc(CN4CCN(C(C)C)CC4)cc32)sc1C(N)=O` (stereo not drawn) [Example 149, 5-{6-[(4-isopropylpiperazin-1-yl)methyl]-1H-imidazo[4,5-c]pyridin-1-yl}-3-[1-(2-methylphenyl)ethoxy]thiophene-2-carboxamide], the IC50 was in the range of 10 to 100 nM.
Take `NC(=O)c1sc(-n2cnc3ccncc32)cc1OCc1ccc(F)cc1C(F)(F)F` [Example 41, 3-{[4-fluoro-2-(trifluoromethyl)benzyl]oxy}-5-(3H-imidazo[4,5-c]pyridin-3-yl)thiophene-2-carboxamide]: the IC50 lay within 10 to 100 nM.
For the compound `C[C@@H](Oc1cc(-n2cnc3cnc(CN4CCN(S(=O)(=O)c5ccccc5)CC4)cc32)sc1C(N)=O)c1ccccc1C(F)(F)F` [Example 58, 5-(6-{[4-(phenylsulfonyl)piperazin-1-yl]methyl}-1H-imidazo[4,5-c]pyridin-1-yl)-3-{(1R)-1-[2-(trifluoromethyl)phenyl]ethoxy}thiophene-2-carboxamide], the IC50 lay in the range of 10 to 100 nM.
The figure for `NC(=O)c1sc(-n2cnc3ccncc32)cc1OCc1ccccc1OC(F)F` [Example 38, 3-{[2-(difluoromethoxy)benzyl]oxy}-5-(3H-imidazo[4,5-c]pyridin-3-yl)thiophene-2-carboxamide] is 10 to 100 nM.
